The text below walks through data of publication PMC7044277 (Nature Communications, 2020).

What all share (assay type): cell-based
Holding throughout (set-up): GPCRome screening signal at PTGIR / GPCRome screening signal at PTH1R / GPCRome screening signal at PTH2R / GPCRome screening signal at QRFP / GPCRome screening signal at RXFP2 / GPCRome screening signal at RXFP3 / GPCRome screening signal at RXFP4 / GPCRome screening signal at S1PR2 / GPCRome screening signal at S1PR3 / GPCRome screening signal at S1PR4 / GPCRome screening signal at S1PR5 / GPCRome screening signal at SCTR / GPCRome screening signal at SSTR2 / GPCRome screening signal at SSSTR / GPCRome screening signal at SSTR4 / GPCRome screening signal at SSTR5 / GPCRome screening signal at SUCNR1 / GPCRome screening signal at TA1 / GPCRome screening signal at TAAR2 / GPCRome screening signal at TAAR5 / GPCRome screening signal at TAAR6 / GPCRome screening signal at TAAR8 / GPCRome screening signal at TACR1 / GPCRome screening signal at TACR2 / GPCRome screening signal at TACR3 / GPCRome screening signal at TBXA2R / GPCRome screening signal at TSHR / GPCRome screening signal at UTS2R / GPCRome screening signal at VIPR2 / GPCRome screening signal at GPR68 no V2 Tail / GPCRome screening signal at GRM2 / GPCRome screening signal at GRM3: reference not given here

The target in test [1] is 320 non-olfactory GPCRs (Homo sapiens, UniProt P31391). The following applies: receptor SSTR4.
320 non-olfactory GPCRs (Homo sapiens, UniProt P31391), sequence (P31391 whole entry): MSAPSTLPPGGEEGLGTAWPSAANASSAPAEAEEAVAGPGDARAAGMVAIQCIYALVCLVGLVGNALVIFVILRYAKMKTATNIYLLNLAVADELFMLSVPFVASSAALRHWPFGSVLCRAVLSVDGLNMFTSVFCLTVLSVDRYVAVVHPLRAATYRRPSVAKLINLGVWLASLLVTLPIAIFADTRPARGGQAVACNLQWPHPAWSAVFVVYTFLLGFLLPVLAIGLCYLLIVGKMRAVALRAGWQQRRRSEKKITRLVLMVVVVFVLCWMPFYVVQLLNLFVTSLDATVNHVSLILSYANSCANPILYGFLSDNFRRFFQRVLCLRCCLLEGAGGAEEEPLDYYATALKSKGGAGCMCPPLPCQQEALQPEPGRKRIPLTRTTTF
The target in test [2] is T1, 320 non-olfactory GPCRs (Homo sapiens, UniProt P43119).
T1 construct: expressed in transfected cells; host or cells: HTLA cells
T1 sequence (P43119 whole entry): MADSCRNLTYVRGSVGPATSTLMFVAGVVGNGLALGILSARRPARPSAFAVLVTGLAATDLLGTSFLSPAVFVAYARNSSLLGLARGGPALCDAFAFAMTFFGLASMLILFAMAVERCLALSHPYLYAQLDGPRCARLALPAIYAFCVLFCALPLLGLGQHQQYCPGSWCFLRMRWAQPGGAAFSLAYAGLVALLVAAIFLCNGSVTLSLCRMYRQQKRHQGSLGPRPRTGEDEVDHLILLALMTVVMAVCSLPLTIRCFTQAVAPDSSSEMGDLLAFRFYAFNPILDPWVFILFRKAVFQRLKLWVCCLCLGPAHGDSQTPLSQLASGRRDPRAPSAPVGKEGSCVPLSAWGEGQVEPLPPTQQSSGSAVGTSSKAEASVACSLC
The following applies: receptor PTGIR.

The target of test [3] is T2, 320 non-olfactory GPCRs (Homo sapiens, UniProt P29371).
T2 construct: expressed in transfected cells; host or cells: HTLA cells
T2 sequence (P29371 whole entry): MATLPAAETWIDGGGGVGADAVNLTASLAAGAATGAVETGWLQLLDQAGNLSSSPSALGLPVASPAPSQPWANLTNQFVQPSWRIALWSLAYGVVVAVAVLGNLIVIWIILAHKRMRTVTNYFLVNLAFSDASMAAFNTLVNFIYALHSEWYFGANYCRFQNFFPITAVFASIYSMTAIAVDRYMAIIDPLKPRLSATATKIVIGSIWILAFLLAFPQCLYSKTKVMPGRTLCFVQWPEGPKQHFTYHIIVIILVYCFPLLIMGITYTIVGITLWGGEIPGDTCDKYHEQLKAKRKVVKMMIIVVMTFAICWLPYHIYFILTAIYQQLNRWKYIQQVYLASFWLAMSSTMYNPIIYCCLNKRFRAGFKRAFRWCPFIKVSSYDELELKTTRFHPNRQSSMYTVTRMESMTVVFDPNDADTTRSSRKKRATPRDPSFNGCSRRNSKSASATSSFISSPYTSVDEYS
The following applies: receptor TACR3.

Test [4] deals with T3, 320 non-olfactory GPCRs (Homo sapiens, UniProt P21452).
T3 construct: expressed in transfected cells; host or cells: HTLA cells
T3 sequence (P21452 whole entry): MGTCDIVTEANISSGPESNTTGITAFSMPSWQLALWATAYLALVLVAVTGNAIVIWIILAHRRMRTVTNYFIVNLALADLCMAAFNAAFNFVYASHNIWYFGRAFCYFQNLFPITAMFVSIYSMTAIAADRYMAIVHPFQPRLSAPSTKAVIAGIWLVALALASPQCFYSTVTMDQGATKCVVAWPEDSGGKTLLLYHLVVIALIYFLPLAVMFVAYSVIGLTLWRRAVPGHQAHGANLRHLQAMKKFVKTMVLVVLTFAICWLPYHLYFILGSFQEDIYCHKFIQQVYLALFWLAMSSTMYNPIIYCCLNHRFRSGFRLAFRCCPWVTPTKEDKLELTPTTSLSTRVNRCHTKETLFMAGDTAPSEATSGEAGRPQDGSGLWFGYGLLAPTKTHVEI
The following applies: receptor TACR2.

Setting [5] is: Fig_5f, single replicate values.

Where “and” joins values, the source holds several entries; their conditions need not be identical. Equal entries are not always repeated.
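For GPCRome agonism screen response in this document: fold over basal response of each receptor without drug.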

For the compound `CCOc1ccccc1CCC(C)NCC1(O)CCCCC1.Cl` (racemic) [Fig_5f], the “GPCRome screening signal at SSTR4” value in test [1] (setting [5]) was 1.303 and 1.0005 and 1.096 and 1.043. Besides, in test [2] (setting [5]), the “GPCRome screening signal at PTGIR” value is 0.4707 and 0.7235 and 1.819 and 1.564. The “GPCRome screening signal at TACR3” value in test [3] (setting [5]) is 1.15 and 1.023 and 1.051 and 0.8328. Besides, in test [4] (setting [5]), the “GPCRome screening signal at TACR2” value was 1.32 and 1.667 and 1.261 and 1.267.

With `CCOc1cccc2cc(C(C)NCC3(O)CCCCC3)oc12` (centres unmarked) [O4LE6], the “GPCRome agonism screen response” value is 1.584 and 2.327 and 0.4288 and 0.2624 in test [1] (replicate values, Fig_4g); 1.654 and 0.8806 and 0.8629 and 1.301 in test [2] (replicate values, Fig_4g); 1.119 and 1.001 and 1.104 and 0.992 in test [3] (replicate values, Fig_4g); 0.5287 and 0.4964 and 0.9933 and 0.8884 in test [4] (replicate values, Fig_4g).
